# Assay results from patent US20240239818A1, “COMPOUNDS AND COMPOSITIONS COMPRISING FLUOROPHORES FOR USE IN VISUALIZATION AND PURIFICATION OR MANIPULATION” (priority 2022, published 2024).
# Experiments:
# HaloTag® protein (HT7) = biological target: T1, HaloTag® protein (HT7) (Rhodococcus rhodochrous, UniProt P0A3G2, A155T/A167V/A172T/A224E/C128F/C176G/D78G/E160K/E257K/H272N/K175M/K195N/L47V/L88M/N227D/S58T/T264A/Y273L/Y87F); test: 1-Photon spectroscopy and quantum yield of HaloTag® conjugates; assay type: physicochemical; settings: absence vs presence of excess HaloTag® protein
# T1 construct: 6xHis (N); T7 tag (gene 10 leader) (N); Xpress tag (N); made in house; host or cells: bacterial expression (vector pRSET-A)
# Description: HaloTag® protein purification. The bacterial expression vector pRSET-A (Invitrogen) was used to recombinantly express HaloTag® protein (HT7; Promega).^45 The soluble 6×His-Tagged HaloTag® protein was affinity purified by immobilized metal affinity chromatography (IMAC) on a 5-mL Fast Flow HiTrap Sepharose 6 column (Cytiva) with a 0-200 mM imidazole elution gradient using an Avant Protein Purification System (ÄKTA). A280 peak fractions were pooled, concentrated by a spin concentrator, and dialyzed 3× into tris-buffered saline (TBS). The amino acid sequence of HaloTag® protein (HT7) expressed from pRSET-A is SEQ ID NO: 1.
# 1-Photon spectroscopy of HaloTag® ligands and HaloTag® conjugates. […] All measurements were taken at ambient temperature (22 ±2° C.). Absorption spectra were recorded on a Cary Model 100 spectrometer (Agilent) using 1-cm path length 1.0-mL quartz microcuvettes from Starna Cells. Fluorescence spectra were recorded on a Cary Eclipse fluorometer (Varian) using 1-cm path length 3.5-mL quartz cuvettes (Starna Cells). […] An aliquot of HaloTag® protein (1.5 equiv) was added, and the resulting mixture was incubated until a consistent absorbance signal was observed (60-120 min). To measure the fold-increase of absorbance upon HaloTag® binding, a “no HaloTag®” control experiment was performed where an equivalent volume of TBS blank was added in place of the protein. […]
# [1] = biological target: T2, HaloTag®-PDGFR fusion protein (Rhodococcus rhodochrous, UniProt P0A3G2, A155T/A167V/A172T/A224E/C128F/C176G/D78G/E160K/E257K/H272N/K175M/K195N/L47V/L88M/N227D/S58T/T264A/Y273L/Y87F); test: Live-cell labeling of cell surface HaloTag® fusion in U2OS cells (Airyscan fluorescence microscopy); assay type: cell-based; settings: 100 nM, 1 h
# T2 construct: expressed in transfected cells; host or cells: U2OS, transient nucleofection
# Description: (§1) U2OS cell culture, labeling, and fluorescence microscopy. U2OS cells (ATCC) were cultured in Dulbecco's modified Eagle medium (DMEM, phenol red-free; Life Technologies) supplemented with 10% (v/v) fetal bovine serum (FBS, Life Technologies), 1 mM GlutaMAX (Life Technologies) and maintained at 37° C. in a humidified 5% (v/v) CO2 environment. These cell lines undergo regular mycoplasma testing by the Janelia Cell Culture Facility. U2OS cells stably expressing an integrated HaloTag®-histone H2B fusion protein (U2OS.H2B.HaloTag®) were used for nuclear imaging and imaged 18-24 h post-plating. […]
# (§2) Live cell imaging with biotin-rhodamine HaloTag® ligands. Having evaluated biotin ligands 12-15 in vitro, their ability to label HaloTag® fusions in live mammalian cells was tested. […] Quantification of the intracellular fluorescence signal from JF549 and msGFP channel further confirmed the poor labeling from 12 (FIG. 9).
# [2] = test system: HaloTag®-TOMM20, HaloTag®-Sec61β, HaloTag®-histone H2B fusion proteins; assay type: cell-based
# Description: as §1, §2
# T1 sequence (P0A3G2 other isoform, or with tags, fused parts or gaps with the stated changes): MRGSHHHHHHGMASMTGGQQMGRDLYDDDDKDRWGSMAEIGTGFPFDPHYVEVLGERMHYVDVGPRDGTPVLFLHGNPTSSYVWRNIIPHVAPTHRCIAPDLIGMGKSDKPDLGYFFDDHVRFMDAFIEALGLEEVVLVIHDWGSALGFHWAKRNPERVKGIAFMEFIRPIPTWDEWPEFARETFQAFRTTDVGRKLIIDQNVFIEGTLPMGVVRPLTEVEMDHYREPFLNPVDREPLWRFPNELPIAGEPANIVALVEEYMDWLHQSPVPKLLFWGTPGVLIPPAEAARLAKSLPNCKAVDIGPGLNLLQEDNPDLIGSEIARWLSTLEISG
# Chain of HaloTag®-TOMM20, HaloTag®-Sec61β, HaloTag®-histone H2B fusion proteins (as listed by the source): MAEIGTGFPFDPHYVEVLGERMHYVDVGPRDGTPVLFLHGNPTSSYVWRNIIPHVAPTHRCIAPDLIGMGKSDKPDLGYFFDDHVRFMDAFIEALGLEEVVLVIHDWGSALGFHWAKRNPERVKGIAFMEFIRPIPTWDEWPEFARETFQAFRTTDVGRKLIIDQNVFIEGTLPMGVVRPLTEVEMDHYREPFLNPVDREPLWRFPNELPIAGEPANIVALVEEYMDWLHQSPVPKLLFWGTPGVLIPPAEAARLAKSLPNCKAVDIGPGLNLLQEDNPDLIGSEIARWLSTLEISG
# T2 sequence (P0A3G2 other isoform, or with tags, fused parts or gaps with the stated changes): as the sequence (as listed by the source) above
Compound,fluorogenicity upon conjugation to the HaloTag® protein (fold-increase of absorbance) (HaloTag® protein (HT7)),labeling of extracellular HaloTag®-PDGFR fusion [1],cell-permeability [2],"labeling of intracellular HaloTag® fusions ([2]; live U2OS cells, 100 nM, 1 h, mitochondria, ER, nucleus)"
"C[Si]1(C)C2=CC(=[N+]3CC(C(=O)NCCOCCOCCNC(=O)CCCC[C@@H]4SC[C@@H]5NC(=O)N[C@@H]54)C3)C=CC2=C(c2cc(C(=O)NCCOCCOCCCCCCCl)ccc2C(=O)[O-])c2ccc(N3CCC3)cc21 (some centres unmarked) [compound 14, Biotin-JF646-HaloTag® ligand]",2.5 ×,,,
"C[Si]1(C)C2=CC(=[N+]3CC(F)(C(=O)NCCOCCOCCNC(=O)CCCC[C@@H]4SC[C@@H]5NC(=O)N[C@@H]54)C3)C=CC2=C(c2cc(C(=O)NCCOCCOCCCCCCCl)ccc2C(=O)[O-])c2ccc(N3CC(F)C3)cc21 (some centres unmarked) [compound 15, Biotin-JF635-HaloTag® ligand]",14.7 ×,,,
Biotin-JF549-HaloTag® ligand [compound 12],,robust labeling of the cellular membrane,poor cell-permeability,did not show an appreciable signal
